Reference: PubChem BioAssay (NCI)
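Test compounds were applied to cells in 96-well plates for 48 hours at 5 doses. The concentration for 50% growth inhibition is given as GI50. Definition used: TGI = concentration required for complete inhibition of growth.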

How the values were obtained:
Assay in all cases: NCI-60 cell line screen, 48 h
A498 renal = test system: A498 renal
SN12C renal = test system: SN12C renal
SK-MEL-2 melanoma = test system: SK-MEL-2 melanoma
HCT-15 colon = test system: HCT-15 colon
LOX IMVI melanoma = test system: LOX IMVI melanoma
ACHN renal = test system: ACHN renal
U251 CNS = test system: U251 CNS
UO-31 renal = test system: UO-31 renal
HOP-62 NSCLC = test system: HOP-62 NSCLC
SNB-78 CNS = test system: SNB-78 CNS
NCI-H23 lung = test system: NCI-H23 lung
CCRF-CEM leukemia = test system: CCRF-CEM leukemia
SK-OV-3 ovarian = test system: SK-OV-3 ovarian
KM12 colon = test system: KM12 colon
SW-620 colon = test system: SW-620 colon
SK-MEL-5 melanoma = test system: SK-MEL-5 melanoma
MOLT-4 leukemia = test system: MOLT-4 leukemia
SF-268 CNS = test system: SF-268 CNS
OVCAR-8 ovarian = test system: OVCAR-8 ovarian
K-562 leukemia = test system: K-562 leukemia
TK-10 renal = test system: TK-10 renal
A549 NSCLC = test system: A549 NSCLC
XF 498 CNS = test system: XF 498 CNS
CAKI-1 renal = test system: CAKI-1 renal
DLD-1 colon = test system: DLD-1 colon
NCI-H226 lung = test system: NCI-H226 lung
786-0 renal = test system: 786-0 renal
MALME-3M melanoma = test system: MALME-3M melanoma
M14 melanoma = test system: M14 melanoma
COLO 205 colon = test system: COLO 205 colon
HT29 colon = test system: HT29 colon
KM20L2 colon = test system: KM20L2 colon
SK-MEL-28 melanoma = test system: SK-MEL-28 melanoma
LXFL 529 NSCLC = test system: LXFL 529 NSCLC
OVCAR-3 ovarian = test system: OVCAR-3 ovarian
HL-60(TB) leukemia = test system: HL-60(TB) leukemia
DMS 273 small cell lung = test system: DMS 273 small cell lung
RPMI-8226 leukemia = test system: RPMI-8226 leukemia
EKVX NSCLC = test system: EKVX NSCLC
SF-539 CNS = test system: SF-539 CNS
IGROV1 ovarian = test system: IGROV1 ovarian
SR leukemia = test system: SR leukemia
HCC-2998 colon = test system: HCC-2998 colon
HOP-92 NSCLC = test system: HOP-92 NSCLC
HCT-116 colon = test system: HCT-116 colon
OVCAR-4 ovarian = test system: OVCAR-4 ovarian
M19-MEL melanoma = test system: M19-MEL melanoma
NCI-H460 lung = test system: NCI-H460 lung
UACC-62 melanoma = test system: UACC-62 melanoma
HOP-18 NSCLC = test system: HOP-18 NSCLC
SF-295 CNS = test system: SF-295 CNS
SNB-19 CNS = test system: SNB-19 CNS
UACC-257 melanoma = test system: UACC-257 melanoma
DMS 114 small cell lung = test system: DMS 114 small cell lung
OVCAR-5 ovarian = test system: OVCAR-5 ovarian
SNB-75 CNS = test system: SNB-75 CNS

COc1cccc(/C=N/[N-]C(=O)c2ccncc2)c1[O-].[Ni+2].[OH3+]
GI50 (A498 renal): > 100 µM | TGI (A498 renal): > 100 µM | GI50 (SN12C renal): > 100 µM | TGI (SN12C renal): > 100 µM | GI50 (SK-MEL-2 melanoma): > 100 µM | TGI (SK-MEL-2 melanoma): > 100 µM | GI50 (HCT-15 colon): > 100 µM | TGI (HCT-15 colon): > 100 µM | GI50 (LOX IMVI melanoma): > 100 µM | TGI (LOX IMVI melanoma): > 100 µM | GI50 (ACHN renal): > 100 µM | TGI (ACHN renal): > 100 µM | GI50 (U251 CNS): > 100 µM | TGI (U251 CNS): > 100 µM | GI50 (UO-31 renal): > 100 µM | TGI (UO-31 renal): > 100 µM | GI50 (HOP-62 NSCLC): > 100 µM | TGI (HOP-62 NSCLC): > 100 µM | GI50 (SNB-78 CNS): > 100 µM | TGI (SNB-78 CNS): > 100 µM | GI50 (NCI-H23 lung): > 100 µM | TGI (NCI-H23 lung): > 100 µM | GI50 (CCRF-CEM leukemia): > 100 µM | TGI (CCRF-CEM leukemia): > 100 µM | GI50 (SK-OV-3 ovarian): > 100 µM | TGI (SK-OV-3 ovarian): > 100 µM | GI50 (KM12 colon): > 100 µM | TGI (KM12 colon): > 100 µM | GI50 (SW-620 colon): > 100 µM | TGI (SW-620 colon): > 100 µM | GI50 (SK-MEL-5 melanoma): > 100 µM | TGI (SK-MEL-5 melanoma): > 100 µM | GI50 (MOLT-4 leukemia): > 100 µM | TGI (MOLT-4 leukemia): > 100 µM | GI50 (SF-268 CNS): > 100 µM | TGI (SF-268 CNS): > 100 µM | GI50 (OVCAR-8 ovarian): > 100 µM | TGI (OVCAR-8 ovarian): > 100 µM | GI50 (K-562 leukemia): > 100 µM | TGI (K-562 leukemia): > 100 µM | GI50 (TK-10 renal): > 100 µM | TGI (TK-10 renal): > 100 µM | GI50 (A549 NSCLC): > 100 µM | TGI (A549 NSCLC): > 100 µM | GI50 (XF 498 CNS): > 100 µM | TGI (XF 498 CNS): > 100 µM | GI50 (CAKI-1 renal): > 100 µM | TGI (CAKI-1 renal): > 100 µM | GI50 (DLD-1 colon): > 100 µM | TGI (DLD-1 colon): > 100 µM | GI50 (NCI-H226 lung): > 100 µM | TGI (NCI-H226 lung): > 100 µM | GI50 (786-0 renal): > 100 µM | TGI (786-0 renal): > 100 µM | GI50 (MALME-3M melanoma): > 100 µM | TGI (MALME-3M melanoma): > 100 µM | GI50 (M14 melanoma): > 100 µM | TGI (M14 melanoma): > 100 µM | GI50 (COLO 205 colon): > 100 µM | TGI (COLO 205 colon): > 100 µM | GI50 (HT29 colon): > 100 µM | TGI (HT29 colon): > 100 µM | GI50 (KM20L2 colon): > 100 µM | TGI (KM20L2 colon): > 100 µM | GI50 (SK-MEL-28 melanoma): > 100 µM | TGI (SK-MEL-28 melanoma): > 100 µM | GI50 (LXFL 529 NSCLC): > 100 µM | TGI (LXFL 529 NSCLC): > 100 µM | GI50 (OVCAR-3 ovarian): > 100 µM | TGI (OVCAR-3 ovarian): > 100 µM | GI50 (HL-60(TB) leukemia): > 100 µM | TGI (HL-60(TB) leukemia): > 100 µM | GI50 (DMS 273 small cell lung): > 100 µM | TGI (DMS 273 small cell lung): > 100 µM | GI50 (RPMI-8226 leukemia): > 100 µM | TGI (RPMI-8226 leukemia): > 100 µM | GI50 (EKVX NSCLC): > 100 µM | TGI (EKVX NSCLC): > 100 µM | GI50 (SF-539 CNS): > 100 µM | TGI (SF-539 CNS): > 100 µM | GI50 (IGROV1 ovarian): > 100 µM | TGI (IGROV1 ovarian): > 100 µM | GI50 (SR leukemia): > 100 µM | TGI (SR leukemia): > 100 µM | GI50 (HCC-2998 colon): > 100 µM | TGI (HCC-2998 colon): > 100 µM | GI50 (HOP-92 NSCLC): > 100 µM | TGI (HOP-92 NSCLC): > 100 µM | GI50 (HCT-116 colon): > 100 µM | TGI (HCT-116 colon): > 100 µM | GI50 (OVCAR-4 ovarian): > 100 µM | TGI (OVCAR-4 ovarian): > 100 µM | GI50 (M19-MEL melanoma): > 100 µM | TGI (M19-MEL melanoma): > 100 µM | GI50 (NCI-H460 lung): > 100 µM | TGI (NCI-H460 lung): > 100 µM | GI50 (UACC-62 melanoma): > 100 µM | TGI (UACC-62 melanoma): > 100 µM | GI50 (HOP-18 NSCLC): > 100 µM | TGI (HOP-18 NSCLC): > 100 µM | GI50 (SF-295 CNS): > 100 µM | TGI (SF-295 CNS): > 100 µM | GI50 (SNB-19 CNS): > 100 µM | TGI (SNB-19 CNS): > 100 µM | GI50 (UACC-257 melanoma): > 100 µM | TGI (UACC-257 melanoma): > 100 µM | GI50 (DMS 114 small cell lung): > 100 µM | TGI (DMS 114 small cell lung): > 100 µM | GI50 (OVCAR-5 ovarian): > 100 µM | TGI (OVCAR-5 ovarian): > 100 µM | GI50 (SNB-75 CNS): > 100 µM | TGI (SNB-75 CNS): > 100 µM
